Source: PMC1810525, “Antagonism of the prostaglandin D2 receptor CRTH2 attenuates asthma pathology in mouse eosinophilic airway inflammation” (Respiratory Research, 2007)
pKi: −log10 of the molar value.

Columns and labels:
AT2 = target: T1, AT2 (Homo sapiens, UniProt P50052); assay: Profiling panel, radioligand binding AT2; conditions: 10 μM
T1 sequence (P50052 1-363): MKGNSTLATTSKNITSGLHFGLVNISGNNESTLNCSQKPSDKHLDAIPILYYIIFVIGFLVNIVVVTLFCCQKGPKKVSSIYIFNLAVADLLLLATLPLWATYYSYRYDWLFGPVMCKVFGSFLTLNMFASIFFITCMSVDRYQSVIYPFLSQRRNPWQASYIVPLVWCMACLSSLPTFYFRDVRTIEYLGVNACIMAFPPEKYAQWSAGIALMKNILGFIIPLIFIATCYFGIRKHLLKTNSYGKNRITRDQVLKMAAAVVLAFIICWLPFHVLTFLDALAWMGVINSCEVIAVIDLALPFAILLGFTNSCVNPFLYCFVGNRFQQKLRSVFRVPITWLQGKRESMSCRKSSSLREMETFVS
Procedure: (§2) All assays were performed using recombinant human receptors and enzymes, and included the appropriate controls for assay validation. Enzymatic and binding assays, except for muscarinic binding, were performed by CEREP in vitro pharmacology profiling services. […] For stimulation of C3a, C5a, and ChemR23 receptors in InsP assays the following agonists were used: human recombinant C3a (C3a receptor), human recombinant C5a (C5a receptor), and the nonapeptide Chemerin (ChemR23).

BLT1 = BLT1 (Homo sapiens, UniProt Q15722); assay: Profiling panel, radioligand binding BLT1; conditions: 10 μM
Procedure: as §2

C5a = target: T2, C5a (Homo sapiens, UniProt P21730); assay: Profiling panel, C5a receptor; conditions: 10 μM, assay type B (binding) per table
T2 sequence (P21730 1-350): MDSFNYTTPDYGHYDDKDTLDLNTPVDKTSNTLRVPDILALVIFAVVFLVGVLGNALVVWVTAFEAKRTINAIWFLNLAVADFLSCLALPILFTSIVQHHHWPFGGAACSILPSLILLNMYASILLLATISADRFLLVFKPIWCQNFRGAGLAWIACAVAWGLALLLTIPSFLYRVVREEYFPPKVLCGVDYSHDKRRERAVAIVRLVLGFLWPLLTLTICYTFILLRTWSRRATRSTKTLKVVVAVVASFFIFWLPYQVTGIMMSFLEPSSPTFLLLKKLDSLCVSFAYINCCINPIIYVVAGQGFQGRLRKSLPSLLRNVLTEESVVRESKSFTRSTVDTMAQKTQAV
Procedure: as §2

CXCR2 = target: T3, CXCR2 (Homo sapiens, UniProt P25025); assay: Profiling panel, radioligand binding CXCR2; conditions: 10 μM
T3 sequence (P25025 1-360): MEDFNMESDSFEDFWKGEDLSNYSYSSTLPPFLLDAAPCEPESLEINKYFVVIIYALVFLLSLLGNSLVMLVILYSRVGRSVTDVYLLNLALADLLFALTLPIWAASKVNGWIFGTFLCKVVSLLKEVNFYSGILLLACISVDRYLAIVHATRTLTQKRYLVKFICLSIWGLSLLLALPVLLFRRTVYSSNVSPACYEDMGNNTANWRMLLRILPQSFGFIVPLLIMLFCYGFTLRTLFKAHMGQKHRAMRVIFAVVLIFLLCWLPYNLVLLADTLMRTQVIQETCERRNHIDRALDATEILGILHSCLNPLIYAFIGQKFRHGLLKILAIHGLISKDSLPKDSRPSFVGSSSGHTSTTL
Procedure: as §2

CysLT1 = target: T4, CysLT1 (Homo sapiens, UniProt Q9Y271); assay: Profiling panel, radioligand binding CysLT1; conditions: 10 μM
T4 sequence (Q9Y271 1-337): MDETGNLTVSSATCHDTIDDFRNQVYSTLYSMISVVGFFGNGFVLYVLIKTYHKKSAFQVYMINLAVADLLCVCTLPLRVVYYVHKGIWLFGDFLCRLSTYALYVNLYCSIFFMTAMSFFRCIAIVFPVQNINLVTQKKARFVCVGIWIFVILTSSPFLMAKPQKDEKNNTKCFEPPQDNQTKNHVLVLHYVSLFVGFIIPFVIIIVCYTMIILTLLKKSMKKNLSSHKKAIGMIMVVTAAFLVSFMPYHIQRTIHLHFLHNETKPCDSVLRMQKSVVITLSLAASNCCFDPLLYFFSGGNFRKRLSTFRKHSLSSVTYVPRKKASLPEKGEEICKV
Procedure: as §2

[1] = target: Muscarinic (M2-selective) (Sus scrofa, UniProt P06199); conditions: 10 μM, binding, porcine heart membranes
Procedure: (§1) TM30089 was tested at a final concentration of 10 μM in either binding or functional assays on several 7TM receptors, and in enzymatic assays on selected enzymes including those involved in arachidonic acid metabolism. All assays were performed using recombinant human receptors and enzymes, and included the appropriate controls for assay validation. Enzymatic and binding assays, except for muscarinic binding, were performed by CEREP in vitro pharmacology profiling services. Full description of methods and references is available on the CEREP Web site. […] Functional assays were performed using recombinant human receptors and enzymes, and included the appropriate controls for C3a, C5a, ChemR23 receptors by determining the inhibitory potency of TM30089 in InsP assays essentially as described above. For stimulation of C3a, C5a, and ChemR23 receptors in InsP assays the following agonists were used: human recombinant C3a (C3a receptor), human recombinant C5a (C5a receptor), and the nonapeptide Chemerin (ChemR23).

[2] = tested on: Muscarinic (non-selective); conditions: 10 μM, binding, mouse brain homogenate
Procedure: as §1

Phospholipase A2 = conditions: 10 μM, enzymatic
Procedure: as §1

COX2 = target: T5, COX2 (Homo sapiens, UniProt P35354); assay: Profiling panel, enzymatic assay COX2; assay type: biochemical; conditions: 10 μM
T5 sequence (P35354 18-604): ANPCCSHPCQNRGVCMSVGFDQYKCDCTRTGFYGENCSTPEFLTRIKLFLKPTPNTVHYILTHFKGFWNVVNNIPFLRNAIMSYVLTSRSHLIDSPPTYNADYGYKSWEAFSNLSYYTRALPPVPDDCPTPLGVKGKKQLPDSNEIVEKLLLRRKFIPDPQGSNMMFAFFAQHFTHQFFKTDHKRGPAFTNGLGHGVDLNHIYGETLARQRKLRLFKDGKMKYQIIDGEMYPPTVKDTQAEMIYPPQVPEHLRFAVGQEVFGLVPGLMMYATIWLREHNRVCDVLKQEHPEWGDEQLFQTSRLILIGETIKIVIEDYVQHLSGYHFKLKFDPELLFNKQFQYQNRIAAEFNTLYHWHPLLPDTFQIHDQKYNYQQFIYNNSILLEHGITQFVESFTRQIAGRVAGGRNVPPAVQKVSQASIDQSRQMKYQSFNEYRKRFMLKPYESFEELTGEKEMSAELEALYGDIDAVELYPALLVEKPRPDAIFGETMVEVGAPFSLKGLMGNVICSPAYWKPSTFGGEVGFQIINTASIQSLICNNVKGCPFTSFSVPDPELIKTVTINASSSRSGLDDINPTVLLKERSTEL
Procedure: as §2

DP = conditions: cited from earlier work
mCRTH2 = target: mCRTH2; design: method as in PMID 15563582; conditions: obtained by others in the same expression system; read-out: reported Ki value mCRTH2; cited from earlier work

BLT1, sequence (Q15722 whole entry): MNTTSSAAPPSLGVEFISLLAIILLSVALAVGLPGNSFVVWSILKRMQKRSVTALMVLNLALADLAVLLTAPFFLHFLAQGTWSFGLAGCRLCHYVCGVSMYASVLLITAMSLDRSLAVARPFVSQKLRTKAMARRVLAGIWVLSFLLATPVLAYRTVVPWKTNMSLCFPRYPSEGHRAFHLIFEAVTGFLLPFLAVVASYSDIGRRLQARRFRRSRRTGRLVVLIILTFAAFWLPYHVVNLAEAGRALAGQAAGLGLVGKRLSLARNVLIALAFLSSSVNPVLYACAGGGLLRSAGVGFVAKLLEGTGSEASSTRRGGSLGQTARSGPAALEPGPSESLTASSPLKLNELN
Muscarinic (M2-selective), sequence (P06199 whole entry): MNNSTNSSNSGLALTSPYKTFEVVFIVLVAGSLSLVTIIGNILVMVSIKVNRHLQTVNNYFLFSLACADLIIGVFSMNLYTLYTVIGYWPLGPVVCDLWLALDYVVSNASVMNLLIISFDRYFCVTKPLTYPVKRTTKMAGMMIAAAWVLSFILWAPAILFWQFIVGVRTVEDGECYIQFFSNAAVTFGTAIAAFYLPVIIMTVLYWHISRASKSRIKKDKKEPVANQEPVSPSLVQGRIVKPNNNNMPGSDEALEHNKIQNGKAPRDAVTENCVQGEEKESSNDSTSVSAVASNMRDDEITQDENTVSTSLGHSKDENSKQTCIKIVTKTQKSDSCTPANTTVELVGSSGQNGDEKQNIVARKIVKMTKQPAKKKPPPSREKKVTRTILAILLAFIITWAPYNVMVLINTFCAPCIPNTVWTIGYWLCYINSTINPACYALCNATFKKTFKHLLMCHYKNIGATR

Row | SMILES | % of control AT2 (AT2) | % of control BLT1 (BLT1) | % of control C5a (C5a) | % of control CXCR2 (CXCR2) | % of control CysLT1 (CysLT1) | % of control Muscarinic (M2-selective) [1] | % of control Muscarinic (non-selective) [2] | % of control Phospholipase A2 (Phospholipase A2) | % of control COX2 (COX2) | preference for CRTH2 over DP (DP) | pKi (mCRTH2)
1 | CN(C1CCc2c(c3ccccc3n2CC(=O)O)C1)S(=O)(=O)c1ccc(F)cc1 (centres unmarked) [TM30089] | 98.1 ± 1.4% | 89.3 ± 3.5% | 108.7 ± 6.3% | 104.6 ± 6.1% | 116.9 ± 10.5% | 97.5 ± 1.9% | 106.7 ± 8.5% | 101.5 ± 1.0% | 123.8 ± 13.4% | > 1000 fold | 
2 | O=C(O)CCn1c2c(c3ccccc31)C[C@H](NS(=O)(=O)c1ccc(F)cc1)CC2 [ramatroban, reference compound] |  |  |  |  |  |  |  |  |  |  | 7.55
